Assays:
[1] = molecular target: Ephrin type-A receptor 5 (Homo sapiens) (UniProt P54756); assay: Inhibition of human EphA5 at 10 uM after 60 mins by TR-FRET assay; details: values are per cent of control
[2] = molecular target: Vascular endothelial growth factor receptor 1 (Homo sapiens) (UniProt P17948); assay: Inhibition of human Flt1 at 10 uM after 60 mins by TR-FRET assay; details: values are per cent of control
[3] = molecular target: Serine/threonine-protein kinase SIK1 (Homo sapiens) (UniProt P57059); assay: Inhibition of human SIK at 10 uM after 60 mins by TR-FRET assay; details: values are per cent of control
[4] = molecular target: Serine/threonine-protein kinase PLK2 (Homo sapiens) (UniProt Q9NYY3); assay: Inhibition of human Snk at 10 uM after 60 mins by TR-FRET assay; details: values are per cent of control
[5] = molecular target: Ribosomal protein S6 kinase alpha-6 (Homo sapiens) (UniProt Q9UK32); assay: Inhibition of human Rsk4 at 10 uM after 60 mins by TR-FRET assay; details: values are per cent of control
[6] = molecular target: Tyrosine-protein kinase HCK (Homo sapiens) (UniProt P08631); assay: Inhibition of human Hck at 10 uM after 60 mins by TR-FRET assay; values are per cent of control
Tyrosine-protein kinase HCK (Homo sapiens), sequence (P08631 2-526 limits assumed): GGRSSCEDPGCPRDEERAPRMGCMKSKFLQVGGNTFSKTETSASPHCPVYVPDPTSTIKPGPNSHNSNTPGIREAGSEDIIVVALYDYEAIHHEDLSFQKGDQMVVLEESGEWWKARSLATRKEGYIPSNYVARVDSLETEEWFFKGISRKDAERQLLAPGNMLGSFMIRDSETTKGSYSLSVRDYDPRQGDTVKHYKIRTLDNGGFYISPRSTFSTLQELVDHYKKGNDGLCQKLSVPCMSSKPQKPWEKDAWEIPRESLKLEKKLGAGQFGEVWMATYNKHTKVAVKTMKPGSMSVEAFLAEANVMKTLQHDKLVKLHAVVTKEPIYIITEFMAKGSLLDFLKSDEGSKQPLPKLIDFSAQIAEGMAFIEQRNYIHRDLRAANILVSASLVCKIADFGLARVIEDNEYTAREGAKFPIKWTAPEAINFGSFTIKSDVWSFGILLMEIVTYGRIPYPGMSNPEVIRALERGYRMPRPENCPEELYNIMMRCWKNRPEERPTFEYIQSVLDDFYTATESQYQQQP

[7] = molecular target: Insulin receptor-related protein (Homo sapiens) (UniProt P14616); assay: Inhibition of human IRR at 10 uM after 60 mins by TR-FRET assay; values are per cent of control
[8] = molecular target: Serine/threonine-protein kinase Nek3 (Homo sapiens) (UniProt P51956); assay: Inhibition of human NEK3 at 10 uM after 60 mins by TR-FRET assay; values are per cent of control
Serine/threonine-protein kinase Nek3 (Homo sapiens), sequence (P51956 whole entry): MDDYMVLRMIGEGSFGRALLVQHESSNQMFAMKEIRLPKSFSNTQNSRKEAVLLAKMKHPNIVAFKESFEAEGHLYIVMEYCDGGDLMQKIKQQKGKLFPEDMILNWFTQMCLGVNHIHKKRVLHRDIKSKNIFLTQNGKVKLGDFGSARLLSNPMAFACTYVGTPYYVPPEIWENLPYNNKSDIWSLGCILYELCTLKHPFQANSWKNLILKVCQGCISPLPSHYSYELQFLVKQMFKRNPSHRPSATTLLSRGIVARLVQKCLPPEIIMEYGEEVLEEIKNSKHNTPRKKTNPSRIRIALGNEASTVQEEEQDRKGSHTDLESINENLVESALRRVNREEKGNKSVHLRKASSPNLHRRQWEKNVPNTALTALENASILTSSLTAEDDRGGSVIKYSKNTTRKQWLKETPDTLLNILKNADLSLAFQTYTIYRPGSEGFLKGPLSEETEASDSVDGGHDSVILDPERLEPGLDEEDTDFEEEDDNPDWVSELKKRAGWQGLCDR

[9] = molecular target: Serine/threonine-protein kinase Nek7 (Homo sapiens) (UniProt Q8TDX7); assay: Inhibition of human NEK7 at 10 uM after 60 mins by TR-FRET assay; values are per cent of control
[10] = molecular target: T1, Serine/threonine-protein kinase Chk1 (Homo sapiens) (UniProt O14757); assay: Inhibition of human CHK1 at 10 uM after 60 mins by TR-FRET assay; values are per cent of control
T1 sequence (whole entry): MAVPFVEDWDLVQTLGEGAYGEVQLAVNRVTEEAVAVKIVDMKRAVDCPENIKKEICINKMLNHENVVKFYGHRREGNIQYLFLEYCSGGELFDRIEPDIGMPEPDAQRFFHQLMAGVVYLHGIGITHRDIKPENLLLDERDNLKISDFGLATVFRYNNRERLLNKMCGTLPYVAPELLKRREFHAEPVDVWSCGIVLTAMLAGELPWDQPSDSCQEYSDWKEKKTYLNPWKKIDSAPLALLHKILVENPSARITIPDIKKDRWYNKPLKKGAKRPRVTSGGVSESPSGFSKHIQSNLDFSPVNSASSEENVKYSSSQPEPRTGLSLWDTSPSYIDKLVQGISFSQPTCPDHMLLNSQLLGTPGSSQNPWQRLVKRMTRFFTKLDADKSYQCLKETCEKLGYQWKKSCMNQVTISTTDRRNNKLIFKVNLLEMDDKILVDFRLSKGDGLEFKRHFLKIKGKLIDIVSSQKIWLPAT

[11] = molecular target: Serine/threonine-protein kinase PAK 2 (Homo sapiens) (UniProt Q13177); assay: Inhibition of human PAK2 at 10 uM after 60 mins by TR-FRET assay; values are per cent of control
Serine/threonine-protein kinase PAK 2 (Homo sapiens), sequence (Q13177 whole entry): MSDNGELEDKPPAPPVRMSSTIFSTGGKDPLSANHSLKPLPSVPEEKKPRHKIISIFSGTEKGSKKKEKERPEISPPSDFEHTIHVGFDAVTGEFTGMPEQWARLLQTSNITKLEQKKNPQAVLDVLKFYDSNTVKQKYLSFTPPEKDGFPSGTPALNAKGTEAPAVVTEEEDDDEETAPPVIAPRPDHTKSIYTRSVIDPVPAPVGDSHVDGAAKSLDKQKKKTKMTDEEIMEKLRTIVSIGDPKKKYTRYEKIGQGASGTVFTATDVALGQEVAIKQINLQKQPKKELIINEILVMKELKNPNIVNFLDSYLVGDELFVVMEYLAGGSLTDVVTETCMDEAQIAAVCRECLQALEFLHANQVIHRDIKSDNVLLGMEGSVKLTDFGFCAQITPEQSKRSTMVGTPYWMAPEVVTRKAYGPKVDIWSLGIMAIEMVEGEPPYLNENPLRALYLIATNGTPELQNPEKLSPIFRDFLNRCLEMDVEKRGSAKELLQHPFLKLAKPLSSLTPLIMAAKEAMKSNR

[12] = molecular target: Serine/threonine-protein kinase PAK 5 (Homo sapiens) (UniProt Q9P286); assay: Inhibition of human PAK5 at 10 uM after 60 mins by TR-FRET assay; values are per cent of control
[13] = molecular target: Serine/threonine-protein kinase PLK1 (Homo sapiens) (UniProt P53350); assay: Inhibition of human Plk1 at 10 uM after 60 mins by TR-FRET assay; values are per cent of control
[14] = molecular target: Ephrin type-A receptor 2 (Homo sapiens) (UniProt P29317); assay: Inhibition of human EphA2 at 10 uM after 60 mins by TR-FRET assay; values are per cent of control
[15] = molecular target: Fibroblast growth factor receptor 1 (Homo sapiens) (UniProt P11362); assay: Inhibition of human FGFR1 at 10 uM after 60 mins by TR-FRET assay; values are per cent of control
Fibroblast growth factor receptor 1 (Homo sapiens), sequence (P11362 22-822 limits assumed): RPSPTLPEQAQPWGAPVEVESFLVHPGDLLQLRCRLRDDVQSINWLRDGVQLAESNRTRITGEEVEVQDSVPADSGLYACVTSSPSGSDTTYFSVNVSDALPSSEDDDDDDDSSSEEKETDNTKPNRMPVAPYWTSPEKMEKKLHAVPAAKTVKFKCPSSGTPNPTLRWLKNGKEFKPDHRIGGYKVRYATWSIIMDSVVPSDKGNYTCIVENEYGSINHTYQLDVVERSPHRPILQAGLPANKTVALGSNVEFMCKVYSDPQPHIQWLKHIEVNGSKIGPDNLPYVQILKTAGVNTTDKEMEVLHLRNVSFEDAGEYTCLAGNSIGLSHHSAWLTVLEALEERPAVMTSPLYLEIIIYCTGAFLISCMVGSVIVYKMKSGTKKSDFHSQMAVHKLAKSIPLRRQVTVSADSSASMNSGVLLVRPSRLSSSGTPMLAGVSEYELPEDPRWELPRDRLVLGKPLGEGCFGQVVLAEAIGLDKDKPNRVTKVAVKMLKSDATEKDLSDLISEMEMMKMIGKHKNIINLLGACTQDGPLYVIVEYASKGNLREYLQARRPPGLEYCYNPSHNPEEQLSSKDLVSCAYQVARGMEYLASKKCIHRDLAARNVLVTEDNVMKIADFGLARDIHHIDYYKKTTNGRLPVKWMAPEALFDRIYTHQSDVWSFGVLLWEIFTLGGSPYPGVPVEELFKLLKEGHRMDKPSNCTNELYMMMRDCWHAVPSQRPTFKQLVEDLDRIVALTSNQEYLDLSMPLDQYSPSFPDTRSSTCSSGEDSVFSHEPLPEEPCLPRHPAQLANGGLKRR

[16] = molecular target: SRSF protein kinase 3 (Homo sapiens) (UniProt Q9UPE1); assay: Inhibition of human MSSK1 at 10 uM after 60 mins by TR-FRET assay; values are per cent of control
SRSF protein kinase 3 (Homo sapiens), sequence (Q9UPE1 whole entry): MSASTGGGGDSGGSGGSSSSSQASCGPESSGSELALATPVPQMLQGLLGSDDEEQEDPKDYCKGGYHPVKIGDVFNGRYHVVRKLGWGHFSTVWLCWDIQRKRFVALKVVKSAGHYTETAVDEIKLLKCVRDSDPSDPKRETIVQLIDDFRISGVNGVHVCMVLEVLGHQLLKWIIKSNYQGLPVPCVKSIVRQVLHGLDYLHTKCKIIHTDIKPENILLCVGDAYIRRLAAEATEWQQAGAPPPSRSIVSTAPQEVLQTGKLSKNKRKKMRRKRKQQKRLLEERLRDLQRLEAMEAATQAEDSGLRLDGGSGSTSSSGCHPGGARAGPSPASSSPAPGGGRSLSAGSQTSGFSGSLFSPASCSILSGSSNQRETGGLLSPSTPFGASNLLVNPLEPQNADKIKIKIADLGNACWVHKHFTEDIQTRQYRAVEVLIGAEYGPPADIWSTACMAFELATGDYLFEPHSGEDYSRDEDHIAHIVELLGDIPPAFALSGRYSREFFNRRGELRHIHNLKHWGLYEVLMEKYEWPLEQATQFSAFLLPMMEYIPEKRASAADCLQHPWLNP

[17] = molecular target: Casein kinase II subunit alpha' (Homo sapiens) (UniProt P19784); assay: Inhibition of human CK2a2 at 10 uM after 60 mins by TR-FRET assay; values are per cent of control
[18] = molecular target: Mast/stem cell growth factor receptor Kit (Homo sapiens) (UniProt P10721); assay: Inhibition of human c-Kit at 10 uM after 60 mins by TR-FRET assay; values are per cent of control
Mast/stem cell growth factor receptor Kit (Homo sapiens), sequence (P10721 whole entry): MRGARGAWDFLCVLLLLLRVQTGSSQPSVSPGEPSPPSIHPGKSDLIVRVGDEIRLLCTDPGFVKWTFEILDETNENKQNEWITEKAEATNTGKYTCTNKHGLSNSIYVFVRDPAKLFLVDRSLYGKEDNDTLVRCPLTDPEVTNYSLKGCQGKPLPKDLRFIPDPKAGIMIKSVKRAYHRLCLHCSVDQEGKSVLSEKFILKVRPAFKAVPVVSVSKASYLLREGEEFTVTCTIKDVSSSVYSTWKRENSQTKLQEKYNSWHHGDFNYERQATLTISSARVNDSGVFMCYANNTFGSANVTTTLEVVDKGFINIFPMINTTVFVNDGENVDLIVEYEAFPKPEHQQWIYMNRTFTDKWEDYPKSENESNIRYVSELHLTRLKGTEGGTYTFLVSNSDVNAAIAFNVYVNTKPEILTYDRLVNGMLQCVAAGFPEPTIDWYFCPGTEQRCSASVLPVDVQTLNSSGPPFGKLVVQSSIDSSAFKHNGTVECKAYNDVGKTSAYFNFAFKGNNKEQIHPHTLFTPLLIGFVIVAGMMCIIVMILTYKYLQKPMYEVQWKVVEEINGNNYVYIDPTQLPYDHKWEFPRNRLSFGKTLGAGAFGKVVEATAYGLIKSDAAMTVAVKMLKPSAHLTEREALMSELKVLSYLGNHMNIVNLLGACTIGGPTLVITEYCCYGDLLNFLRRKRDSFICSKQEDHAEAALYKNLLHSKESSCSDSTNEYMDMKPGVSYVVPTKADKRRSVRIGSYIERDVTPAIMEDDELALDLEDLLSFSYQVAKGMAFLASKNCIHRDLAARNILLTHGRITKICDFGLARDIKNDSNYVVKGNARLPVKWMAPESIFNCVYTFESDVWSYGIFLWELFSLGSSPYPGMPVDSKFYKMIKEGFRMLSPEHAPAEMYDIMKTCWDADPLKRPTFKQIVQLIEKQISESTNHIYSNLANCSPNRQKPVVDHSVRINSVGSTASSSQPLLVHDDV

[19] = molecular target: Serine/threonine-protein kinase D1 (Homo sapiens) (UniProt Q15139); assay: Inhibition of human PKCmu at 10 uM after 60 mins by TR-FRET assay; values are per cent of control
[20] = molecular target: cGMP-dependent protein kinase 1 (Homo sapiens) (UniProt Q13976); assay: Inhibition of human PKG1alpha at 10 uM after 60 mins by TR-FRET assay; values are per cent of control
[21] = molecular target: Calcium/calmodulin-dependent protein kinase type II subunit gamma (Homo sapiens) (UniProt Q13555); assay: Inhibition of human CaMK2gamma at 10 uM after 60 mins by TR-FRET assay; values are per cent of control
[22] = test system: Proto-oncogene tyrosine-protein kinase Src (Homo sapiens), P12931 [T341M]; assay: Inhibition of human Src T341M mutant at 10 uM after 60 mins by TR-FRET assay; values are per cent of control
[23] = test system: Tyrosine-protein kinase ABL1 (Homo sapiens), P00519 [H396P]; assay: Inhibition of human Abl H396P mutant at 10 uM after 60 mins by TR-FRET assay; values are per cent of control
[24] = test system: Fibroblast growth factor receptor 2 (Homo sapiens), P21802 [N549H]; assay: Inhibition of human FGFR2 N549H mutant at 10 uM after 60 mins by TR-FRET assay; values are per cent of control

Ephrin type-A receptor 5 (Homo sapiens), sequence (P54756 whole entry): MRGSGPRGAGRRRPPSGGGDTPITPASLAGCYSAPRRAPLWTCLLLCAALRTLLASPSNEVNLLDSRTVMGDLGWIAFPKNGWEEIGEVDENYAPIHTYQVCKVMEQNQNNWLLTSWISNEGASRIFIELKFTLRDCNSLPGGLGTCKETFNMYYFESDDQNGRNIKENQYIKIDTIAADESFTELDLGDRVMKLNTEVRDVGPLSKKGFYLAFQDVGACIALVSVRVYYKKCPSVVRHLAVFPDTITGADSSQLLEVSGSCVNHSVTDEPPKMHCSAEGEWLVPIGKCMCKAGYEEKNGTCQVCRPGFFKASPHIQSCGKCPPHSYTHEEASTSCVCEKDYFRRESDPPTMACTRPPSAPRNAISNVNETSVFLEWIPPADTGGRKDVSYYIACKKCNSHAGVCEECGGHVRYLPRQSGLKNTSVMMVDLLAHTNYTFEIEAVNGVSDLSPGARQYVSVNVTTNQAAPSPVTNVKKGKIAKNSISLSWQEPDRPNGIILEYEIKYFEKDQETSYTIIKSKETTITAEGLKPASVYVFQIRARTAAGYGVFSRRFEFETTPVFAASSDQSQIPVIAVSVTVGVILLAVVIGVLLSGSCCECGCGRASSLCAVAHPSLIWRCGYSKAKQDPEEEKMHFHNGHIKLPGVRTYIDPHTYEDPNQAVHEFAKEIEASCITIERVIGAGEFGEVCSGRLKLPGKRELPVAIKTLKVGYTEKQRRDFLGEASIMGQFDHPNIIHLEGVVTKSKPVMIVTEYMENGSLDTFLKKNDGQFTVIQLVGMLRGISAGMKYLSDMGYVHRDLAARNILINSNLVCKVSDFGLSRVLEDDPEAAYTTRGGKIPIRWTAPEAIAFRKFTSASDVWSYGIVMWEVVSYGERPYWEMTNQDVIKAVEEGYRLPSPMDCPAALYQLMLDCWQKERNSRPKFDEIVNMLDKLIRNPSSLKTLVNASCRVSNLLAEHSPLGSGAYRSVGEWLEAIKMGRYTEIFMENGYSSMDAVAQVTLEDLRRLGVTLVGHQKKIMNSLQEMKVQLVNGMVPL

S=c1[nH]nc(-c2ccncc2)n1-c1ccc2ccccc2c1
residual activity [1]: 110%
residual activity [2]: 107%
residual activity [3]: 117%
residual activity [4]: 113%
residual activity [5]: 109%
residual activity [6]: 112%
residual activity [7]: 111%
residual activity [8]: 118%
residual activity [9]: 112%
residual activity [10]: 113%
residual activity [11]: 108%
residual activity [12]: 101%
residual activity [13]: 90%
residual activity [14]: 102%
residual activity [15]: 98%
residual activity [16]: 121%
residual activity [17]: 108%
residual activity [18]: 108%
residual activity [19]: 104%
residual activity [20]: 108%
residual activity [21]: 118%
residual activity [22]: 113%
residual activity [23]: 107%
residual activity [24]: 91%
